Measurements taken from ChEMBL document CHEMBL1148049, “Antimitotic and cytotoxic flavonols from Zieridium pseudobtusifolium and Acronychia porteri” (J Nat Prod, 1994).
Values after ≈ are worked out from the molar mass of the structure shown.

Tests used:
KB = test: Cytotoxicity against human KB cells; assay type: functional, cell-based
[1] = Inhibition of tubulin assembly

| IC50 [1] [µM] | SMILES | IC50 (KB) [µg/mL] |
| --- | --- | --- |
| 12 | COc1ccc(-c2oc3c(OC)c(OC)c(OC)c(O)c3c(=O)c2OC)cc1O | 0.04 (≈ 0.0989 µM) |
| – | COc1ccc(-c2oc3c(OC)c(OC)c(OC)c(O)c3c(=O)c2OC)cc1OC | 6 (≈ 14.3 µM) |
| – | COc1cc(-c2oc3c(OC)c(OC)c(OC)c(O)c3c(=O)c2O)cc(O)c1OC | 2 (≈ 4.76 µM) |
| – | COc1ccc(-c2oc3c(OC)c(OC)c(OC)c(O)c3c(=O)c2O)cc1O | 6 (≈ 15.4 µM) |
| – | COc1ccc(-c2oc3c(OC)c(OC)c(OC)c(O)c3c(=O)c2O)cc1OC | 0.1 (≈ 0.247 µM) |
| – | COc1c(OC)c(O)c2c(=O)c(OC)c(-c3ccc(O)c(O)c3)oc2c1OC | 0.44 (≈ 1.13 µM) |
| – | COc1cc(-c2oc3c(OC)c(OC)c(OC)c(O)c3c(=O)c2OC)ccc1O | 0.2 (≈ 0.495 µM) |
| 3 | COc1ccc(-c2oc3cc(O)c(OC)c(O)c3c(=O)c2OC)cc1O [CENTAUREIDIN] | 0.27 (≈ 0.749 µM) |
| – | COc1cc(-c2oc3c(OC)c(OC)c(OC)c(O)c3c(=O)c2OC)cc(O)c1OC [DIGICITRIN] | 2 (≈ 4.6 µM) |
| 4 | CC[C@]1(O)C[C@@H]2CN(CCc3c([nH]c4ccccc34)[C@@](C(=O)OC)(c3cc4c(cc3OC)N(C)[C@H]3[C@@](O)(C(=O)OC)[C@H](OC(C)=O)[C@]5(CC)C=CCN6CC[C@]43[C@@H]65)C2)C1 [VINBLASTINE] | – |
